Laboratory results taken from US9988430B2, “Stable GLP-1 based GLP-1/glucagon receptor co-agonists” (Novo Nordisk A/S, priority 2014, dated 2018).
*1 amine or outer side, *2 acyl side, *3 side chain or, on linkers, in order; H or OH if unused. Where a SMILES comes first, the peptide text is derived from it. Bridges are numbered along the chain shown (N, C = ends). Roman numbers before positions name the chains, in order. Side-chain parts run from the residue outwards. [ ]: non-standard residue; d: D form. The star is where a group is joined. C20 diacid = O=C(O)CCCCCCCCCCCCCCCCCCC(=O)*; C18 diacid = O=C(O)CCCCCCCCCCCCCCCCC(=O)*; γGlu = O=C(O)[C@H](CCC(=O)[*:2])N[*:1]; Desaminohistidyl = O=C(CCc1c[nH]cn1)*; AEEA = NCCOCCOCC(=O)O; Aib = CC(C)(N)C(=O)O

Target: T1, human GLP-1 receptor (Homo sapiens, UniProt P43220)
T1 construct: expressed in transfected cells; host or cells: membranes of BHK cells, parent line BHKTS13, clone FCW467-12A
T1 sequence (P43220 24-463): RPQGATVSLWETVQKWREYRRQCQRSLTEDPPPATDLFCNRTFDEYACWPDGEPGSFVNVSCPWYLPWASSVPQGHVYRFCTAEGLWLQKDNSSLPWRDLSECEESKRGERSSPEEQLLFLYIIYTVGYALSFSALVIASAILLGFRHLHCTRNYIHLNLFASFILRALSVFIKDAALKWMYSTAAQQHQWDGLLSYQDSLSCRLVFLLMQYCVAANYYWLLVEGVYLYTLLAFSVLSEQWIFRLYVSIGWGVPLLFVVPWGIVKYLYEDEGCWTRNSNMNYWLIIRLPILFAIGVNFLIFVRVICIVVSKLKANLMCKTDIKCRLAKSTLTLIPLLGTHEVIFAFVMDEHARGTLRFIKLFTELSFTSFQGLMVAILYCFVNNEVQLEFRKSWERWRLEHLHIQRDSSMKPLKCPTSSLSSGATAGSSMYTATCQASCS
Test: Assay (II)(a): GLP-1 receptor binding, [125I]GLP-1 displacement, SPA on BHK membranes
Settings: displacement of [125I]GLP-1, membranes with human GLP-1 receptor; read-out: IC50 GLP-1R
Description: Assay (II): GLP-1 and Glucagon Receptor Binding The purpose of this assay is to test the in vitro receptor binding activity of the GLP-1 derivatives of the invention. (a) GLP-1 Receptor Binding The GLP-1 receptor (GLP-1R) binding is a measure of the affinity of a derivative for the human GLP-1 receptor. The GLP-1 receptor binding of each derivatives were determined with competitive binding, displacing [^125I]GLP-1 bound to GLP-1 receptors expressed in cell membranes associated with wheat germ agglutinin (WGA) scintillation proximity assay (SPA) beads. Each derivative was added in a series of concentrations to isolated membranes comprising the human GLP-1 receptor and displacement of the labelled radioligand was monitored. The receptor binding was reported as the concentration at which half of the labelled ligand is displaced from the receptor, the IC^50 value. The following chemicals were used in the assay: MEM w/o phenol red (Gibco 11880-028), Pen/strep (Invitrogen 15140-122), G418 (Invitrogen 10131-027), 1 M Hepes (Gibco 15630), EDTA (Invitrogen 15575-038), PBS (Invitrogen 14190-094), fetal calf serum (Invitrogen 16140-071), EGTA, MgCl2 (Merck 1.05832.1000), Tween 20 (Amresco 0850C335), SPA particles (wheat germ agglutinin (WGA) SPA beads, Perkin Elmer RPNQ0001), [125I]-GLP-1]-(7-36)NH2 (produced in-house), OptiPlate™-96 (Perkin Elmer). Buffer 1 consisted of 20 mM Na-HEPES plus 10 mM EDTA and pH was adjusted to 7.4. Buffer 2 consisted of 20 mM Na-HEPES plus 0.1 mM EDTA and pH was adjusted to 7.4. Assay buffer consisted of 50 mM HEPES supplemented with 5 mM EGTA, 5 mM MgCl2, 0.005% Tween 20 and pH was adjusted to 7.4. A 0.02% albumin stock consisted of HSA dissolved at 0.02% (w/v) in assay buffer. The cells used in this assay (clone FCW467-12A) were BHK cells with BHKTS13 as a parent cell line. The cells express the human GLP-1 receptor. The cells were grown at 5% CO2 in DMEM, 10% fetal calf serum, 1% Pen/Strep (Penicillin/Streptomycin) and 1.0 mg/ml of the selection marker G418. To make a membrane preparation the cells were grown to approximately 80% confluence. The cells were washed twice in phosphate-buffered saline and harvested. The cells were pelleted using a brief centrifugation and the cell pellet was kept on ice. The cell pellet was homogenised with ULTRA-THURRAX dispersing instrument for 20-30 seconds in a suitable amount of buffer 1 (e.g., 10 ml). The homogenate was centrifuged for 15 minutes. The pellet was re-suspended (homogenised) in 10 ml buffer 2 and centrifuged. This step was repeated once more. The resulting pellet was re-suspended in buffer 2 and the protein concentration was determined. The membranes were aliquoted and stored at minus 80° C. • 1. For the receptor binding assay 50 μl of the assay buffer was added to each well of an assay plate. • 2. Test compounds were serially diluted to give the following concentrations: 8×10EE-7 M, 8×10EE-8 M, 8×10EE-9 M, 8×10EE-10 M, 8×10EE-11 M, 8×10EE-12 M and 8×10EE-13 M. Twenty-five μl were added to appropriate wells in the assay plate. • 3. Cell membrane aliquots were thawed and diluted to their working concentration. Fifty μl were added to each well in the assay plate. • 4. WGA SPA beads were suspended in assay buffer at 20 mg/ml. The suspension was diluted to 10 mg/ml in assay buffer just prior to addition to the assay plate. Fifty μl were added to each well in the assay plate. • 5. The incubation was started by adding 25 μl of 480 pM solution of [125I]-GLP-1]-(7-36)NH2 to each well of the assay plate. A 25 μl aliquot was reserved for measuring total counts/well. • 6. The assay plate was incubated for 2 h at 30° C. • 7. The assay plate was centrifuged for 10 min. • 8. The assay plate was read in a Perkin Elmer TopCount NXT instrument. Calculations The data from the TopCount instrument were transferred to GraphPad Prism software. The software averaged the values for the replicates and performed a non-linear regression. IC50 values were calculated by the software and reported in nM. […]

SMILES | IC50
CC[C@H](C)[C@H](NC(=O)[C@H](Cc1ccccc1)NC(=O)[C@H](CCC(=O)O)NC(=O)[C@H](CCCNC(=N)N)NC(=O)[C@H](C)NC(=O)[C@H](C)NC(=O)[C@H](CCC(N)=O)NC(=O)[C@H](CCC(=O)O)NC(=O)[C@H](CCC(=O)O)NC(=O)[C@H](CC(C)C)NC(=O)[C@H](Cc1ccc(O)cc1)NC(=O)[C@H](CCCCN)NC(=O)[C@H](CO)NC(=O)[C@@H](NC(=O)[C@H](CC(=O)O)NC(=O)[C@H](CO)NC(=O)[C@@H](NC(=O)[C@H](Cc1ccccc1)NC(=O)[C@@H](NC(=O)CNC(=O)[C@H](Cc1c[nH]cn1)NC(=O)C(C)(C)NC(=O)CCc1c[nH]cn1)[C@@H](C)O)[C@@H](C)O)C(C)C)C(=O)N[C@@H](C)C(=O)N[C@@H](Cc1c[nH]c2ccccc12)C(=O)N[C@@H](CC(C)C)C(=O)N[C@@H](CC(C)C)C(=O)N[C@@H](CCCCNC(=O)COCCOCCNC(=O)COCCOCCNC(=O)CC[C@H](NC(=O)CC[C@H](NC(=O)CCCCCCCCCCCCCCCCCCC(=O)O)C(=O)O)C(=O)O)C(=O)N[C@H](C(N)=O)[C@@H](C)O [Example 40, N^ε34-[2-[2-[2-[[2-[2-[2-[[(4S)-4-carboxy-4-[[(4S)-4-carboxy-4-(19-carboxynonadecanoylamino)butanoyl]amino]butanoyl]amino]ethoxy]ethoxy]acetyl]amino]ethoxy]ethoxy]acetyl]-[Imp7,Aib8,His9,Lys18,Glu22,Arg26,Leu33,Thr35]-GLP-1-(7-35)-peptide amide] (Desaminohistidyl-[Aib]HGTFTSDVSKYLEEQAAREFIAWLLK([AEEA-AEEA-γGlu-γGlu-C20 diacid])T-NH2) | 0.4 nM
CC[C@H](C)[C@H](NC(=O)[C@H](Cc1ccccc1)NC(=O)[C@H](CCC(=O)O)NC(=O)[C@H](CCCNC(=N)N)NC(=O)[C@H](C)NC(=O)[C@H](C)NC(=O)[C@H](CCC(N)=O)NC(=O)[C@H](CCC(=O)O)NC(=O)[C@H](CCC(=O)O)NC(=O)[C@H](CC(C)C)NC(=O)[C@H](Cc1ccc(O)cc1)NC(=O)[C@H](CCCCN)NC(=O)[C@H](CO)NC(=O)[C@H](Cc1ccc(O)cc1)NC(=O)[C@H](CC(=O)O)NC(=O)[C@H](CO)NC(=O)[C@@H](NC(=O)[C@H](Cc1ccccc1)NC(=O)[C@@H](NC(=O)CNC(=O)[C@H](Cc1c[nH]cn1)NC(=O)C(C)(C)NC(=O)CCc1c[nH]cn1)[C@@H](C)O)[C@@H](C)O)C(=O)N[C@@H](C)C(=O)N[C@@H](Cc1c[nH]c2ccccc12)C(=O)N[C@@H](CC(C)C)C(=O)N[C@@H](CC(C)C)C(=O)N[C@@H](CCCCN)C(=O)NCC(=O)N[C@@H](CCCCNC(=O)CNC(=O)[C@H](CO)NC(=O)[C@H](CCC(=O)O)NC(=O)CNC(=O)[C@H](CO)NC(=O)CC[C@H](NC(=O)CC[C@H](NC(=O)CCCCCCCCCCCCCCCCC(=O)O)C(=O)O)C(=O)O)C(=O)NCC(=O)O [Example 14, N^ε36-[2-[[(2S)-2-[[(2S)-4-carboxy-2-[[2-[[(2S)-2-[[(4S)-4-carboxy-4-[[(4S)-4-carboxy-4-(17-carboxyheptadecanoylamino)butanoyl]amino]butanoyl]amino]-3-hydroxypropanoyl]amino]acetyl]amino]butanoyl]amino]-3-hydroxypropanoyl]amino]acetyl]-[Imp7,Aib8,His9,Tyr16,Lys18,Glu22,Arg26,Leu33,Lys36]-GLP-1-(7-37)-peptide] (I: Desaminohistidyl-[Aib]HGTFTSDYSKYLEEQAAREFIAWLLKGKG-OH / II: {C18 diacid-γGlu-γGlu}-SGESG; amide I:29-II:C) | 3.2 nM
CC[C@H](C)[C@H](NC(=O)[C@H](Cc1ccccc1)NC(=O)[C@H](CCC(=O)O)NC(=O)[C@H](CCCNC(=N)N)NC(=O)[C@H](C)NC(=O)[C@H](C)NC(=O)[C@H](CCCNC(=N)N)NC(=O)CNC(=O)[C@H](CCC(=O)O)NC(=O)[C@H](CC(C)C)NC(=O)[C@H](Cc1ccc(O)cc1)NC(=O)[C@H](CCCCN)NC(=O)[C@H](CO)NC(=O)[C@@H](NC(=O)[C@H](CC(=O)O)NC(=O)[C@H](CO)NC(=O)[C@@H](NC(=O)[C@H](Cc1ccccc1)NC(=O)[C@@H](NC(=O)CNC(=O)[C@H](Cc1c[nH]cn1)NC(=O)[C@H](C)NC(=O)CCc1c[nH]cn1)[C@@H](C)O)[C@@H](C)O)C(C)C)C(=O)N[C@@H](C)C(=O)N[C@@H](Cc1c[nH]c2ccccc12)C(=O)N[C@@H](CC(C)C)C(=O)N[C@@H](CC(C)C)C(=O)N[C@@H](CCCCNC(=O)COCCOCCNC(=O)COCCOCCNC(=O)CC[C@H](NC(=O)CC[C@H](NC(=O)CC[C@H](NC(=O)CCCCCCCCCCCCCCCCC(=O)O)C(=O)O)C(=O)O)C(=O)O)C(=O)NCC(=O)NCC(=O)NCC(=O)O [Example 11, N^ε34-[2-[2-[2-[[2-[2-[2-[[(4S)-4-carboxy-4-[[(4S)-4-carboxy-4-[[(4S)-4-carboxy-4-(17-carboxyheptadecanoylamino)butanoyl]amino]butanoyl]amino]butanoyl]amino]ethoxy]ethoxy]acetyl]amino]ethoxy]ethoxy]acetyl]-[Imp7,His9,Lys18,Arg23,Arg26,Leu33,Gly36]-GLP-1-(7-37)-peptide] (Desaminohistidyl-AHGTFTSDVSKYLEGRAAREFIAWLLK([AEEA-AEEA-γGlu-γGlu-γGlu-C18 diacid])GGG-OH) | 0.9 nM
CC[C@H](C)[C@H](NC(=O)[C@H](Cc1ccccc1)NC(=O)[C@H](CCC(=O)O)NC(=O)[C@H](CCCNC(=N)N)NC(=O)[C@H](C)NC(=O)[C@H](C)NC(=O)[C@H](CCC(N)=O)NC(=O)[C@H](CCC(=O)O)NC(=O)[C@H](CCC(=O)O)NC(=O)[C@H](CC(C)C)NC(=O)[C@H](Cc1ccc(O)cc1)NC(=O)[C@H](CCCCN)NC(=O)[C@H](CO)NC(=O)[C@@H](NC(=O)[C@H](CC(=O)O)NC(=O)[C@H](CO)NC(=O)[C@@H](NC(=O)[C@H](Cc1ccccc1)NC(=O)[C@@H](NC(=O)CNC(=O)[C@H](Cc1c[nH]cn1)NC(=O)C(C)(C)NC(=O)CCc1c[nH]cn1)[C@@H](C)O)[C@@H](C)O)C(C)C)C(=O)N[C@@H](C)C(=O)N[C@@H](Cc1c[nH]c2ccccc12)C(=O)N[C@@H](CC(C)C)C(=O)N[C@@H](CC(C)C)C(=O)N[C@@H](CCCCNC(=O)CC[C@H](NC(=O)CC[C@H](NC(=O)[C@H](CO)NC(=O)CNC(=O)[C@H](CCC(=O)O)NC(=O)[C@H](CO)NC(=O)CNC(=O)CCCCCCCCCCCCCCCCC(=O)O)C(=O)O)C(=O)O)C(=O)N[C@H](C(=O)O)[C@@H](C)O [Example 27, N^ε34-[(4S)-4-carboxy-4-[[(4S)-4-carboxy-4-[[(2S)-2-[[2-[[(2S)-4-carboxy-2-[[(2S)-2-[[2-(17-carboxyheptadecanoylamino)acetyl]amino]-3-hydroxypropanoyl]amino]butanoyl]amino]acetyl]amino]-3-hydroxypropanoyl]amino]butanoyl]amino]butanoyl]-[Imp7,Aib8,His9,Lys18,Glu22,Arg26,Leu33,Thr35]-GLP-1-(7-35)-peptide] (I: Desaminohistidyl-[Aib]HGTFTSDVSKYLEEQAAREFIAWLLKT-OH / II: {C18 diacid}-GSEGS[γGlu][γGlu]; amide I:27-II:C) | 2.3 nM
